# In patent US6936624B2, “Agents for preserving technical materials against insects” (Nihon Bayer Agrochem K.K., priority 1991, dated 2005):
# Where “and” joins values, the source holds several entries; their conditions need not be identical. Equal entries are not always repeated. Where two headings read alike, the source gives them in different places.
# Columns and labels:
# [1] = test system: Reticulitermes santonensis; conditions: comparative values, Holz als Roh- und Werkstoff 35 (1977) 233-237, table 10; cited from earlier work
# [2] = test system: working termites and soldier termites (Coptotermes formosanus); assay: whole plant or invertebrate; assay type: in vivo; conditions: for Degree of xylophagous damage in the pine tree block (0-5): after three weeks; for mortality at 0.32 ppm / mortality at 1.6 ppm / mortality at 8 ppm / mortality at 40 ppm: Coptotermes formosanus, read-out: Mortality termites after three weeks; for Mortality termites after three weeks: blocks aged four weeks at 40° C.
# Procedure: Small blocks of Japanese redpine tree (2 cm×2 cm×2 cm) were soaked for one minute into the aqueous solution prepared by the similar procedure to Example 8.
# After air-dried, they were kept in a constant temperature chamber at 40° C. for four weeks. Then each of the thus treated blocks was placed in a polymeric cup (10 cm diameter) containing 150 ml of sandy loam of 20% moisture content. Into each of the polymeric cups, 100 head of working termites and 10 head of soldier termites (Coptotermes formosanus) were released. After three weeks, the degree of xylophagous damage in the block and the mortality of the termites were investigated.
# [3] = test system: worker termites (Coptotermes formosanus); assay: Formicidal test: treated filter paper in petri dish, termite mortality; assay type: in vivo; conditions: for mortality at 0.32 ppm / mortality at 1.6 ppm / mortality at 8 ppm / mortality at 40 ppm: Coptotermes formosanus, 96 h, read-out: Mortality of termites after four days
# Text: Examples of the active compounds according to the present invention • I.1: 1-(6-chloro-3-pyridylmethyl)-2-nitromethylene-imidazolidine • I.2: 3-(6-chloro-3-pyridylmethyl)-2-nitromethylene-thiazolidine • I.3: imidacloprid
# Comparative compounds • A: phoxim • B: chlorpyriphos Preparation of test formulation: • Solvent: 3 parts by weight of xylene • Emulsifier: 1 part by weight of polyoxyethylene-alkylphenyl-ether
# To prepare a suitable formulation of the active compound, 1 part by weight of each of the active compounds was mixed with the above-mentioned amount of the solvent containing the above-mentioned amount of the emulsifier, and the mixture was diluted with water to a predetermined concentration.
# 1 ml of the aqueous solution prepared in the above-mentioned procedure was uniformly applied using a pipette onto a filter paper that was placed in petri dish of 9 cm diameter. Ten head of worker termites (Coptotermes formosanus) were replaced into the petri dish and it was kept in a constant temperature chamber at 25° C.
# After four days, the mortality of the termites was investigated. This test procedure was carried out in duplicate per each concentration of the active compounds under test.
# [4] = test system: Reticulitermes santonensis; assay: Effectiveness against Reticulitermes santonensis, DIN EN 117, impregnated wood samples; assay type: in vivo; conditions: eight weeks, per wood sample
# Procedure: The toxicity against Reticulitermes santonensis of solutions containing the active compound I.3 in chloroform having the concentrations mentioned in Example 10 was determined according to the detailed description of DIN EN 117 Edition 1981 which is concerned with the European standard method prescribed by the European Committee for standardization concerning wood preservatives, determination of the toxic value against Reticulitermes santonesis.
# An outline of the method is as follows: (see DIN EN 117 for detail)
# The same three wood-samples with impregnation treatment in vacuum as in Example 10 are provided.
# They are exposed to 250 workers, 1 soldier and 1 nymph per batch for eight weeks, and afterword, the number of live/dead larvae is determined.
# The evaluation was made by the following standard:
# * rating values: • 0=no attack • 1=attempted attack • 2=slight attack • 3=average attack • 4=strong attack
# [5] = test system: larvae of Hylotrupes bajulus; assay: Toxic value against larvae of Hylotrupes bajulus, DIN EN 47, impregnated wood samples; assay type: in vivo
# Text: The toxicity against larvae of Hylotorupes bajulus, using wood samples treated with the active compound I.3 […] to the detailed description of DIN EN 47 (edition 1990, Beuth Verlag GMBH) which is concerned with the European standard method prescribed by the European Committee for standardization concerning wood preservatives, determination of the toxic value against larvae of Hylotrupes bajulus.
# An outline of the method is as follows: (see DIN EN 47 for detail)
# Five wood-samples (50 mm×25 mm×15 mm) which are treated by the active compound beforehand (impregnation treatment in vacuum) are provided and in each specimen, a regular pattern of six holes are bored, and then one head of the larvae is inserted per a hole.
# After four weeks, the specimens are cut up in turn and the number of live/dead of larvae is determined.
# In determination, where a live larvae is identified in a specimen, then the remaining specimens without cutting up are stored for a further eight weeks, and afterword, the number of live/dead larvae is determined.
# [6] = test system: larvae of Hylotrupes bajulus; conditions: comparative values, Holz als Roh- und Werkstoff 35 (1977) 233-237, table 6; cited from earlier work
# [7] = 0.32 ppm active compound, filter paper, 25° C.
# [8] = 1.6 ppm active compound, filter paper, 25° C.
# [9] = 8 ppm active compound, filter paper, 25° C.
# [10] = 40 ppm active compound, filter paper, 25° C.
# [11] = 1.44 × 10^−2% (m/m), average absorbed 136.627 g/m^3
# [12] = 1.44 × 10^−3% (m/m), average absorbed 13.463 g/m^3
# [13] = 1.44 × 10^−4% (m/m), average absorbed 1.344 g/m^3
# [14] = 1.44 × 10^−5% (m/m), average absorbed 0.135 g/m^3
# [15] = 7.20 × 10^−3% (m/m), average absorbed 68.211 g/m^3
# [16] = 4 weeks, impregnating solution 0.00144 %, M-value 10.80 g/m^3 wood
# [17] = 4 weeks, impregnating solution 0.0072 %, M-value 52.85 g/m^3 wood
# [18] = 4 weeks, impregnating solution 0.0144 %, M-value 103.97 g/m^3 wood
# [19] = 12 weeks, impregnating solution 0.000144 % (so in the source), M-value 0.11 g/m^3 wood
# [20] = 12 weeks, impregnating solution 0.000144 %, M-value 1.08 g/m^3 wood
# [21] = 12 weeks, impregnating solution 0.00144 % (remaining three specimens), M-value 10.80 g/m^3 wood
structure (smiles),measurement,setting,value
ClC1=C(Cl)[C@]2(Cl)[C@@H]3[C@@H]4C[C@@H]([C@H]5O[C@@H]45)[C@@H]3[C@@]1(Cl)C2(Cl)Cl [Dieldrin],toxic value,[1],50 g/m^3
CCC(C)c1ccccc1OC(=O)NC (stereo not shown) [Bassa (Baycarb)],toxic value,[1],500 g/m^3
"O=[N+]([O-])C=C1NCCN1Cc1ccc(Cl)nc1 [I.1, 1-(6-chloro-3-pyridylmethyl)-2-nitromethylene-imidazolidine]",Degree of xylophagous damage in the pine tree block (0-5),[2]; 0.32 ppm,0.5
same,Degree of xylophagous damage in the pine tree block (0-5),[2]; 1.6 ppm,0
same,Degree of xylophagous damage in the pine tree block (0-5),[2]; 8 ppm,0
same,Degree of xylophagous damage in the pine tree block (0-5),[2]; 40 ppm,0
same,mortality at 0.32 ppm,[2],98%
same,mortality at 1.6 ppm,[2],100%
same,mortality at 8 ppm,[2],100%
same,mortality at 40 ppm,[2],100%
same,mortality at 0.32 ppm,[3]; [7],100%
same,mortality at 1.6 ppm,[3]; [8],100%
same,mortality at 8 ppm,[3]; [9],100%
same,mortality at 40 ppm,[3]; [10],100%
"O=[N+]([O-])N=C1NCCN1Cc1ccc(Cl)nc1 [I.3, 1-(6-chloro-3-pyridylmethyl)-2-nitroimino-imidazolidine]",rating,[4]; [11],0
same,surviving workers,[4]; [11],0%
same,rating,[4]; [12],1
same,surviving workers,[4]; [12],0%
same,rating,[4]; [13],1
same,surviving workers,[4]; [13],0%
same,rating,[4]; [14],4
same,surviving workers,[4]; [14],55% and 51% and 58%
same,rating,[4]; [15],0
same,surviving workers,[4]; [15],0%
same,Degree of xylophagous damage in the pine tree block (0-5),[2]; 0.32 ppm,0
same,Degree of xylophagous damage in the pine tree block (0-5),[2]; 1.6 ppm,0
same,Degree of xylophagous damage in the pine tree block (0-5),[2]; 8 ppm,0
same,Degree of xylophagous damage in the pine tree block (0-5),[2]; 40 ppm,0
same,mortality at 0.32 ppm,[2],100%
same,mortality at 1.6 ppm,[2],100%
same,mortality at 8 ppm,[2],100%
same,mortality at 40 ppm,[2],100%
same,mortality at 0.32 ppm,[3],100%
same,mortality at 1.6 ppm,[3],100%
same,mortality at 8 ppm,[3],100%
same,mortality at 40 ppm,[3],100%
same,"State of the larvae at the end of the test: dead, no wood digested",[5]; [16],4
same,"State of the larvae at the end of the test: dead, wood digested",[5]; [16],6
same,State of the larvae at the end of the test: living,[5]; [16],1
same,State of the larvae at the end of the test: not found,[5]; [16],1
same,"State of the larvae at the end of the test: dead, no wood digested",[5]; [17],29
same,"State of the larvae at the end of the test: dead, wood digested",[5]; [17],1
same,State of the larvae at the end of the test: living,[5]; [17],0
same,State of the larvae at the end of the test: not found,[5]; [17],0
same,"State of the larvae at the end of the test: dead, no wood digested",[5]; [18],27
same,"State of the larvae at the end of the test: dead, wood digested",[5]; [18],3
same,State of the larvae at the end of the test: living,[5]; [18],0
same,State of the larvae at the end of the test: not found,[5]; [18],0
same,"State of the larvae at the end of the test: dead, no wood digested",[5]; [19],1
same,"State of the larvae at the end of the test: dead, wood digested",[5]; [19],4
same,State of the larvae at the end of the test: living,[5]; [19],23
same,State of the larvae at the end of the test: not found,[5]; [19],2
same,"State of the larvae at the end of the test: dead, no wood digested",[5]; [20],4
same,"State of the larvae at the end of the test: dead, wood digested",[5]; [20],12
same,State of the larvae at the end of the test: living,[5]; [20],11
same,State of the larvae at the end of the test: not found,[5]; [20],3
same,"State of the larvae at the end of the test: dead, no wood digested",[5]; [21],6
same,"State of the larvae at the end of the test: dead, wood digested",[5]; [21],11
same,State of the larvae at the end of the test: living,[5]; [21],0
same,State of the larvae at the end of the test: not found,[5]; [21],1
Clc1ccc(C(c2ccc(Cl)cc2)C(Cl)(Cl)Cl)cc1 [DDT],toxic value,[6],5-10 g/m^3
same,toxic value,[1],>1 500 g/m^3
CNC(=O)Oc1ccccc1OC(C)C [Propoxur],toxic value,[6],18-30 g/m^3
same,toxic value,[1],140 g/m^3
"CCOP(=S)(OCC)Oc1nc(Cl)c(Cl)cc1Cl [B, 0,0-diethyl-3,5,6-trichloro-2-pyridylphosphorothioate, reference compound]",Degree of xylophagous damage in the pine tree block (0-5),[2]; 0.32 ppm,5
same,Mortality termites after three weeks,[2]; 0.32 ppm,0%
same,Degree of xylophagous damage in the pine tree block (0-5),[2]; 1.6 ppm,3
same,Mortality termites after three weeks,[2]; 1.6 ppm,0%
same,Degree of xylophagous damage in the pine tree block (0-5),[2]; 8 ppm,1
same,Mortality termites after three weeks,[2]; 8 ppm,78%
same,Degree of xylophagous damage in the pine tree block (0-5),[2]; 40 ppm,0
same,Mortality termites after three weeks,[2]; 40 ppm,100%
same,Mortality of termites after four days,[3]; [7],100%
same,Mortality of termites after four days,[3]; [8],100%
same,Mortality of termites after four days,[3]; [9],100%
same,Mortality of termites after four days,[3]; [10],100%
CCOP(=S)(OCC)Oc1ccc([N+](=O)[O-])cc1 [Ethylparathion],toxic value,[1],200 g/m^3
Cl[C@H]1[C@H](Cl)[C@@H](Cl)[C@@H](Cl)[C@H](Cl)[C@H]1Cl [Lindan],toxic value,[1],75 g/m^3
CCOP(=S)(OCC)ON=C(C#N)c1ccccc1Cl [Chlorophoxim],toxic value,[1],500 g/m^3
"O=[N+]([O-])C=C1SCCN1Cc1ccc(Cl)nc1 [I.2, 3-(6-chloro-3-pyridylmethyl)-2-nitromethylene-thiazolidine]",Degree of xylophagous damage in the pine tree block (0-5),[2]; 0.32 ppm,0
same,Degree of xylophagous damage in the pine tree block (0-5),[2]; 1.6 ppm,0
same,Degree of xylophagous damage in the pine tree block (0-5),[2]; 8 ppm,0
same,Degree of xylophagous damage in the pine tree block (0-5),[2]; 40 ppm,0
same,mortality at 0.32 ppm,[2],100%
same,mortality at 1.6 ppm,[2],100%
same,mortality at 8 ppm,[2],100%
same,mortality at 40 ppm,[2],100%
same,mortality at 0.32 ppm,[3],100%
same,mortality at 1.6 ppm,[3],100%
same,mortality at 8 ppm,[3],100%
same,mortality at 40 ppm,[3],100%
